Experimental data: US6746667B2, “Adhesive treatment for tinea pedis” (Closure Medical Corporation, priority 2001, dated 2004)

Assay: observation of haloprogin / 2-octyl cyanoacrylate monomer composition after preparation
Assay type: physicochemical
Details: 30 mg in 2 mL 2-octyl cyanoacrylate monomer; about one minute and at least twenty-four hours after preparation
Procedure: A 2-octyl cyanoacrylate monomer composition is prepared by adding 30 mg of haloprogin, an anti-fungal agent, to 2 mL of 2-octyl cyanoacrylate monomer. The mixture is sealed in a glass vial and stirred. The characteristics of the composition are observed at about one minute after preparation and later at least twenty-four hours after preparation.

With `Clc1cc(Cl)c(OCC#CI)cc1Cl` [haloprogin] the “premature polymerization of the monomer (stability)” value was “does not cause premature polymerization” and the “solubility in the monomer” value was “soluble in the monomer”.
